Measurements taken from patent US12714682B2, “Calixarene compounds and uses thereof” (UNIVERSITÄT WIEN, priority 2019, dated 2026).
“Also recorded” adds a separate entry of the source.

Tests used:
[1] = test system: SH-SY5Y (neuroblastoma cell line); assay: RNAseq global gene expression in differentiated SH-SY5Y cells; assay type: cell-based, human
Procedure: To determine the cellular response to SCA-744 (Cat. No. 55523-250 MG Sigma-Aldrich), the global changes in gene expression upon treatment of human in vitro cultured cells, SH-SY5Y (neuroblastoma cell line: SH-SY5Y-ATCC-CRL-2266) were analysed by RNAseq analysis. SH-SY5Y were cells differentiated with retinoic acid and Phorbol-12-Myristate-13-Acetate (Presgraves et al. Experimental Neurology 2004, 190(1), pp. 157-170). Cell cultures were treated for 24 hours with 500 μM of SCA-744 or vehicle (DPBS). Total RNA was isolated to prepare libraries using the Lexogen SENSE mRNA kit and sequenced using a HiSeq2500 (Illumina) running in 50 bp single-read modes using sequencing chemistry v4. Differentially expressed genes (DEGs) were identified by applying the statistical tests of DESeq (Anders & Huber, Genome biology 2010, 11(10), p. R106), and edgeR (Robinson et al. Bioinformatics 2009, 26(1), pp. 139-140.) packages. The comparison was made with Homo sapiens identifiers.

[2] = test system: neuroblastoma cells; assay: Protection from MPP+ induced oxidative stress, CellTiter-Glo viability; assay type: cell-based
Procedure: Several in-vivo and in-vitro studies find that MPP+ exerts oxidative stress on cells^22. MPP+×toxicity is based on its uptake into dopaminergic neurons. MPP+ accumulate into the mitochondria, inhibiting the complex-I leading to ATP depletion, increased reactive oxygen species (ROS) production, and apoptotic cell death^23. 12 h following MPP+ treatment and SCA-744 and CAL-X incubation, cell viability was assessed using a standard ATP method, CellTiter-Glo® Luminescent Cell Viability Assay.

[3] = test system: THP-1 human monocytic cell line; assay: LPS-stimulated THP-1 macrophage cytokine production (LEGENDplex); assay type: cell-based
Procedure: A specific anti-inflammatory effect or activity of a compound is proven, if the compound can decrease the production of one of IL-1B, IL-6 and TNFα in human THP1 macrophages following LPS stimulation, as determined by a standard assay: THP-1 human monocytic cell lines are treated with 100 nM of Phorbol 12-myristate 13-acetate (PMA) for 48 h to induce mature macrophage-like state. Cells are then stimulated with 100 ng/ml of LPS in the absence and presence of 500 μM of compound. After 6 hours, supernatants of treated and untreated cells are collected, and cytokine levels determined using the Human Inflammatory panel LEGENDplex Human Pro-inflammatory Chemokine Panel (Cat. No. 740118). A positive result is considered if the compound is capable of reduce or block the production of IL-1β, IL-6, and TNFα in human THP1 macrophages after LPS stimulation.
Following cells were treated with [10 ng/ml] LPS in the absence and presence 10, 100 and 500 μM of SCA-744. Cytokine levels were determined by LEGENDplex™ Human Inflammation Panel assay from BioLegend. The bar heights represent the concentration means compared to LPS alone of 3 independent experiments carried out in triplicates.
Cells were treated with 100 nM of Phorbol 12-myristate 13-acetate (PMA) for 48 h to induce mature macrophage-like state. Cells were then stimulated with 100 ng/ml of Lipopolysaccharides (LPS) in the absence and presence of 500 μM of SCA-744. After 6 hours, supernatants of treated and untreated cells were collected and the levels of three major pro-inflammatory cytokines TNF-α, IL-6 and IL-1ß were determined using the Human Inflammatory panel of LEGENDPLEX Multi-Analyte Flow assay.

[4] = test system: C57BL/6J mice; assay: LPS-induced acute lung inflammation model: respiratory function (plethysmography); assay type: in vivo; conditions: 100 μg LPS intratracheal, measured 24 h after; SCA-744 60 mg/kg i.p. 4 doses; dexamethasone 5 mg/kg ip. 2 doses
Procedure: Acute lung inflammation was induced by intratracheal administration of 100 μg LPS (Escherichia coli O111:B4; Sigma Aldrich, St. Louis, MO, USA) dissolved in 60 μl sterile phosphate buffered saline (PBS) under ketamine (120 mg/kg ip.; Calypsol, Gedeon Richter Plc., Budapest, Hungary) and xylazine (6 mg/kg ip.; Sedaxylan, Eurovet Animal Health B.V., Bladel, Netherlands) anaesthesia. 24 h after administration, respiratory function parameters were assessed, and lung samples were harvested for histopathological evaluation.
SCA-744 (60 mg/kg) and its vehicle were injected intraperitoneally (i.p.), 24 h, 12 h, 20 min before and 12 h after intratracheal administration of LPS. […] 24 h and 20 min before LPS treatment. Respiratory function measurement was performed 24 h after LPS administration
Buxco FinePoint Non-invasive Airway Mechanics (NAM) double chamber plethysmography (DSI Harvard Bioscience Inc.) was used to monitor ventilatory and bronchoconstriction parameters in awake, restrained animals without the use of anesthesia. The plethysmograph measures the nasal and thoracic flows independently. […] After 10 minutes of acclimatization period baseline pulmonary functions were assessed, such as the frequency, tidal volume, minute ventilation, expiratory/inspiratory time, peak expiratory/inspiratory flow, and specific airway resistance, a measure of bronchoconstriction.

[5] = test system: aged mice; assay: Lung lysate cytokines in aged mice (animal model of ageing); assay type: in vivo; conditions: 30 mg/kg i.p., 2 or 3 days intervals for 2 weeks
Procedure: In a second set of experiments, the anti-inflammatory effect of SCA-744 was tested in vivo, in an animal model of ageing. It is well established that the ageing process is associated with low-grade inflammation. Mice older than 18 months show many characteristics of aged humans and are considered as a relevant model of human ageing. […] After treatment of aged mice (5 mice/group) with SCA-744 for 2 weeks (at 2 or 3 days intervals at 30 mg/kg dose, i.p.), lungs of the mice were harvested and lysates were prepared. Cytokine levels were determined by LEGENDplex™ Mouse Inflammation Panel assay from BioLegend. […] Importantly, the anti-inflammatory cytokine IL-10 was not affected by SCA-744.

[6] = test system: LDL-R; assay: LDL-R immunofluorescence microscopy in HeLa cells; assay type: cell-based, human; conditions: 50 and 500 μM, 48 hours
Procedure: In another set of experiments, HeLa cells were treated the same way (50 and 500 μM of SCA-744 for 48 hours). Cells were fixed with 4% paraformaldehyde solution for 10 min at RT and permeabilized with 0.1% Triton X-100 for 15 min at RT and analysed by immunofluorescence microscopy using the same anti-human LDLR antibody employed for the immunoblotting. This detection method was more sensitive, and indicated the presence of LDL-R even in control cells.

[7] = 500 μM, 24 hours, differentiated SH-SY5Y

O=S(=O)(O)c1cc2c(O)c(c1)Cc1cc(S(=O)(=O)O)cc(c1O)Cc1cc(S(=O)(=O)O)cc(c1O)Cc1cc(S(=O)(=O)O)cc(c1O)C2 [SCA-744, 4-sulfocalix[4]arene]
genes for LDLR, INSIG1 and DHCR24/Seladin-1 [1]: found to be modulated | genes involved in inflammation, anti-oxidative, anti-ageing response and lipid metabolism (RNAseq) [1, 7]: differentially regulated | mRNA expression of anti-oxidative genes CHAC1, NQO1, SLC7A11 (RNASeq) [1, 7]: significant up-regulation | mRNA expression of key genes involved in pro-inflammatory response [1, 7]: down regulates key genes involved in pro-inflammatory response | protection from MPP+ induced apoptosis / damage ([2]; 0.1-1000 μM, 12 h): protects against oxidative stress from MPP+ induced damage; also recorded: protected neuroblastoma cells from MPP+ induced apoptosis | concentration for MPP+ protection ([2]; 12 h following MPP+ treatment, CellTiter-Glo): 1 µM | inhibition of LPS-induced TNF-α, IL-ß and IL-6 ([3]; 10 ng/ml LPS, 10, 100 and 500 μM, FIG. 2): Dose-dependent inhibition | pro-inflammatory cytokine levels (TNF-α, IL-6, IL-1ß) in culture supernatant ([3]; 500 μM, 100 ng/ml LPS, 6 hours, PMA-differentiated THP-1): significantly decreased | respiratory function parameters (fBPM, FRC, Te, Rpef, Ti) versus control animals [4]: significantly improved; also recorded: did not induce statistically significant alterations | IL-6, TNF-α and lipocalin (LCN2) in lung lysates [5]: Significantly decreased amounts | anti-inflammatory cytokine IL-10 in lung lysates [5]: not affected | level of LDL-R (immunofluorescence, semi-quantitative) [6]: significantly increased the level of LDL-R in a concentration dependent manner
